{"source": "patent US20210364497A1", "about": "“IFN-beta Reporter System for Primary Cells” (UNIVERSITY OF MIAMI, priority 2018, published 2021)", "system": "Human IFNβ promoter", "experiment": "GLuc/SEAP dual reporter assay of the IFNβ promoter in hTERT-pIFNβ-GLuc cells", "format": "cell-based", "conditions": "FIG. 3B; hTERT-pIFNB-Gluc cells treated, 3 μg/ml, 24 hours", "procedure": "Human IFNβ promoter (sequence in FIG. 1) was cloned into Lentiviral vector pEZX-LvPG04 at GeneCopoeia. Lentiviral plasmid was co-transfected with LentiViral Package System (LENT-PACT™) into 293T cells using Lipofectamine 2000. 293T medium containing Lentiviral particles was collected 48 hours post transfection, filtered through 0.2 μM filter, and transduced to pre-seeded hTERT cells in the presence of 10 μg/ml polybrene. Transduction was repeated twice in 2 consecutive days. 48 hours after the last transduction, hTERT cells were selected by 2 μg/ml puromycin for 4 weeks. Single colonies of transduced hTERT cells were puromycin selected, and expanded for IENβ promoter-luciferase assay validation.\nTo test the establishment of GLuc/SEAP-ρIENs1 reporter system, hTERT clones were mock treated (lipo) or transfected with synthetic double-stranded DNA (dsDNA). hTERT-ρIENβ-GLuc cells were transfected with synthetic 90-mer double-stranded DNA (dsDNA90) at 3 μg/ml using Lipofectamine 2000. 24 hours later, cell media was collected and analyzed for GLuc and SEAP activity using the Secrete-Pair Dual Luminescence Assay Kits (GeneCopoeia).\nIn additional experiments, hTERT-pIFNB-Gluc cells were treated with LPS1 (1 μg/ml) or transfected with dsDNA90 (3 μg/ml) or 2′-3′ cGAMP (3 μg/ml) for 24 hours. […]", "data": [{"substance": "poly I:C", "values": [{"measurement": "GLuc expression (Gluc activity normalized by SEAP internal control)", "value": "activated"}]}]}
